Results published in publication PMC11112591 (ACS Omega, 2024).

What was measured:
[1] = Mouse liver microsome intrinsic clearance; assay type: in vitro ADME; settings: liver microsomes, pH 7.4
[2] = Parallel artificial membrane permeability assay; assay type: in vitro ADME; settings: PAMPA, PAMPA effective permeability, donor pH 6.5, acceptor pH 7.5, 5 h, 37 °C
CYP51 = CYP51 (Trypanosoma cruzi, UniProt Q7Z1V1); test: CYP51 inhibition of initial hits; assay type: biochemical; settings: initial hit data, Figure 1
CYP51, sequence (Q7Z1V1 whole entry): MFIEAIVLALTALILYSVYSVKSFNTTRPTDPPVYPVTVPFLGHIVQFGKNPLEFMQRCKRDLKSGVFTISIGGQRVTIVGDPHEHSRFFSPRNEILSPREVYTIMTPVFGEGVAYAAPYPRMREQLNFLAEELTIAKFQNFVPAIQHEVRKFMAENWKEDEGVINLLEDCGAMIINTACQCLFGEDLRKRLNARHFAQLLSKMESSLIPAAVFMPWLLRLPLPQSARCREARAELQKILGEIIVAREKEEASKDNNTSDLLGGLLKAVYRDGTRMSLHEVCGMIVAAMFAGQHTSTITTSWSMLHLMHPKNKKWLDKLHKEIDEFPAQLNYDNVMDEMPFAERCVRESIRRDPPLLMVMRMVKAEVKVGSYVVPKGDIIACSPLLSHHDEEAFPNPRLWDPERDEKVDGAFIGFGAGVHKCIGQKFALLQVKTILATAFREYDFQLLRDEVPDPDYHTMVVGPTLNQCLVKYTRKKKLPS

Compound | microsomal CLint at 0.5 µM [1] [µL/min/mg] | Papp at 5 h, 1 µM [2] [×10⁻⁶ cm/s] | CYP51 IC50 (CYP51)
Cc1cc(C)c(C#N)c(SCC(=O)c2cccs2)n1 [Compound 1, c1(SCC(=O)c2cccs2)nc(C)cc(C)c1C#N] | 3480 | 25.4 | no clear CYP51 inhibition
Cc1cc(C)c(C#N)c(SCC(=O)c2ccccc2)n1 [Compound 2, c1c(C)c(C#N)c(SCC(=O)c2ccccc2)nc1C] | 1560 | 20.4 | –
Cc1cc(C)c(C#N)c(SCC(=O)c2ccsc2)n1 [Compound 3, S(c1nc(C)cc(C)c1C#N)CC(=O)c2cscc2] | 1320 | 23.3 | –
CCc1ccc(C(=O)CSc2nc(C)cc(C)c2C#N)cc1 [Compound 5, S(c1nc(C)cc(C)c1C#N)CC(=O)c2ccc(CC)cc2] | 8860 | 1 | –
Cc1cc(C)c(C#N)c(SCC(=O)c2ccc(F)cc2)n1 [Compound 6, S(c1nc(C)cc(C)c1C#N)CC(=O)c2ccc(F)cc2] | – | 8 | –
Cc1cc(C)c(C#N)c(SCC(=O)c2ccc(F)cc2F)n1 [Compound 7, O=C(CSc1nc(C)cc(C)c1C#N)c2ccc(F)cc2F] | 4040 | 7.5 | –
Cc1cc(C)c(C#N)c(SCC(=O)c2ccc(Cl)cc2)n1 [Compound 8, Cc1c(C#N)c(SCC(=O)c2ccc(Cl)cc2)nc(C)c1] | 8880 | 4.3 | –
Cc1cc(C)c(C#N)c(SCC(=O)c2ccc(Cl)cc2Cl)n1 [Compound 9, Clc1cc(ccc1C(CSc2c(C#N)c(C)cc(C)n2)=O)Cl] | 35300 | 1.7 | –
COc1ccccc1C(=O)CSc1nc(C)cc(C)c1C#N [Compound 10, S(c1nc(C)cc(C)c1C#N)CC(=O)c2ccccc2OC] | 9670 | 9.3 | –
COc1ccc(C(=O)CSc2nc(C)cc(C)c2C#N)cc1 [Compound 11, S(c1nc(C)cc(C)c1C#N)CC(=O)c2ccc(OC)cc2] | 4300 | 24.6 | –
Cc1cc(C)c(C#N)c(SCC(=O)N2CCOCC2)n1 [Compound 16, Cc1c(C#N)c(SCC(=O)N2CCOCC2)nc(C)c1] | 73.9 | 11.7 | –
Cc1cc(C)c(C#N)c(OCC(=O)c2ccccc2)n1 [Compound 23, O(c1nc(C)cc(C)c1C#N)CC(=O)c2ccccc2] | 3240 | 31.1 | –
Cc1cc(C)c(C(N)=O)c(SCC(=O)c2ccc(F)cc2)n1 [Compound 38, O=C(CSc1nc(C)cc(C)c1C(=O)N)c2ccc(F)cc2] | 892 | 17.5 | –
